Reference: patent publication US12716888B2, “Composition for diagnosis or treatment of anticancer drug resistance” (priority 2020, dated 2026)

Experiments:
[1] = test system: ECF-resistant MKN-74 cells; assay: Crystal violet staining and WST-1 analysis of regrowth after ECF treatment of NINJ2 knockdown cells; type: cell-based, human; settings: 3 weeks after ECF treatment; NINJ2 knockdown ECF-resistant MKN-74 cells
Experimental: To evaluate whether NINJ2 is involved in drug resistance, a stable NINJ2 knockdown (K/D) ECF-resistant cancer cell line was prepared using shRNA lentiviral particles and puromycin. More specifically, for stable NINJ2 knockdown in ECF-resistant MKN-74 cells, two shRNAs (TRCN0000063773 (Clone-1) and TRCN0000063775 (Clone-2)) targeting different partial regions of NINJ2 genes (Isoform-1, Isoform-2 and Isoform-3) as shown in Table 1 below were used, and a non-targeting pLKO.1-puro shRNA control (SHC002) was used as a negative control. The shRNA clones (TRCN0000063773, TRCN0000063775 and SHC002) containing the pMDLg/pRRE, pRSV-Rev and pMD2.G plasmids, respectively, were transfected into 293T cells using Fugene HD (Promega) according to the manufacturer's instructions. After 48 hours, each supernatant was collected and filtered, and ECF-resistant MKN-74 cells were transduced with lentiviral particles and cultured in a growth medium containing puromycin. After NINJ2 knockdown in the lentivirus-transduced MKN-74 cells was confirmed using qRT-PCR, the cells were treated with ECF, and an examination was made as to whether cancer cells in the negative control (Mock) and the shNINJ2 groups (clone 1 and clone 2) re-grew.

[2] = test system: ECF-resistant cancer cells (RES) from the MKN-28/74 cell line; assay: Nude mouse xenograft of ECF-resistant MKN-28/74 cells given ECF and siRNA; type: in vivo, Balb/c nude mice; settings: ECF (5.7 mg/kg epirubicin, 6.67 mg/kg cisplatin, 22 mg/kg 5-FU) intratumorally once a week; NINJ2 mRNA expression inhibited
Experimental: FIGS. 9A and 9B show the results of measuring changes in tumor volume and weight after transplanting wild-type or scrambled siRNA RES and siNINJ2 RES cancer cell lines from the MKN-28/74 cell line into nude mice and then administering ECF and siRNA to the nude mice when the tumor volume reached 100 mm^3, according to one example of the present invention.
A mouse model was prepared by xenografting Balb/c nude mice with the spheroids prepared from the MKN-28/74 cell line by the method of Example 3. Specifically, […] ECF-resistant cancer cells (ECF-R cancer cells) and parental cancer cells were subcutaneously injected into Balb/c nude mice, respectively, and an examination was made as to whether the animal model xenografted with the ECF-resistant cancer cells (RES) established in vitro had acquired ECF drug resistance. […] To this end, 5.7 mg/kg of epirubicin, 6.67 mg/kg of cisplatin and 22 mg/kg of 5-FU were administered intratumorally to xenograft model mice having a tumor size of 100 mm^3 once a week for 15 days, and the tumor weight and the tumor volume were measured every 3 days using digital calipers. […]
Referring to FIG. 9A, it was confirmed that the tumor volume changed after the ECF drugs were administered to the animal model xenografted with each cell line group. FIG. 9B depicts graphs showing the results of quantifying the changes in the tumor volume and weight.

Substance	recurrence and regrowth of cancer cells compared to negative control (Mock) [1]	tumor volume compared to the RES group [2]	tumor weight compared to the RES group [2]
clone-2: NINJ2-targeting shRNA, lentiviral; target region SEQ ID NO: 6, hairpin sequence SEQ ID NO: 10 (guide CCGGCTGAACCTGAATGAGGTAGAACTCGAGTTCTACCTCATTCAGGTTCAGTTTTTG)	significantly inhibited		
siNINJ2: siRNA against NINJ2, sense SEQ ID NO: 11 and antisense SEQ ID NO: 12 (sense GUAAGGCAUGUCUGUCUAAGGCC; antisense GGCCUUAGACAGACAUGCCUUAC; listed as RNA, chemistry not given here)		significantly decreased	significantly decreased
clone-1: NINJ2-targeting shRNA, lentiviral; target region SEQ ID NO: 5, hairpin sequence SEQ ID NO: 9 (guide CCGGCGTGGTCATTGCACGGCTGAACTCGAGTTCAGCCGTGCAATGACCACGTTTTTG)	significantly inhibited		
